Experiments:
[1] = test system: IL-6; experiment: Atopic dermatitis efficacy test using macrophages (RAW 264.7): IL-6 released after LPS, ELISA; format: cell-based, mouse; set-up: key to RAW 264.7 (mouse) IL-6: •: have statistical significance, determining as effective, compared with the positive control; conditions: for IL-6 concentration released in cell culture medium: Example 2-1, FIG. 2A, RAW 264.7, 1 μg/mL 24 hours, LPS 0.1 μg/mL 24 hours, compared with positive control (Pos); for RAW 264.7 (mouse) IL-6: 1 μg/mL for 24 hours, then LPS 0.1 μg/mL 24 hours
Method: (§1) To select an amino acid sequence corresponding to a key active site of ZAG having efficacy in the alleviation of atopic symptoms from 18 peptide candidate groups, an atopic dermatitis efficacy test was performed. Five types of immune-related cells were treated with ZAG peptide candidate groups (Z1-Z18, SEQ ID NOs: 1 to 18, respectively) and the ZAG protein (Z0, SEQ ID NOs: 19) at a concentration of 1 μg/mL for 24 hours, and then treated with a stimulator suitable for each cell line for the listed time to confirm an immune response. The experiment was performed with a group treated with only a stimulator as a positive control experimental group, and a group treated with only a vehicle without a stimulator as a negative control experimental group (Table 2: Efficacy test method for atopic dermatitis). An inflammatory response-related enzyme used as a stimulator is produced by immune cells, and histamine initiates an inflammatory response. The immune cells migrating to a damaged region release cytokines such as tumor necrosis factor-α (TNF-α) and interleukin-6 (IL-6) to directly lyse foreign invasive substances or collect other immune cells to initiate an inflammatory response. An efficacy test using inflammation-inducing materials, interferon-γ and skin inflammation-related factor CCL-17/thymus- and activation-regulated chemokine (TARC) was also performed to confirm an immune response.
Macrophages (RAW 264.7 cells) were treated with a stimulator LPS at a concentration of 0.1 μg/mL for 24 hours, and then the concentration of IL-6 released in a cell culture medium was confirmed by ELISA assay.
(§2) Various types of immune cells were treated with each of Z20mer-1, Z20mer-2, Z20mer-3, Z15mer-1, Z15mer-2, Z15mer-3 and Z15mer-4 at a concentration of 1 μg/mL for 24 hours, and then treated with a stimulator suitable for each cell line for the listed time to confirm an immune response. The atopic dermatitis efficacy test method was performed by the same method as described in Example 1 and Table 2.
(§3) The experiment was performed with experimental groups: 1) negative control: vehicle-treated group (Neg), 2) positive control: a group treated with only a stimulator (Pos), and 3) experimental group: groups treated with a stimulator and ZAG3 or a ZAG3-derived oligopeptide (Z20mer-1, Z20mer-2, Z20mer-3, Z15mer-1, Z15mer-2, Z15mer-3 or Z15mer-4). Concentrations were measured from cell culture by ELISA.
Macrophages (RAW 264.7 cells) were treated with a stimulator LPS at a concentration of 0.1 μg/mL for 24 hours, and then a concentration of IL-6 released in a cell culture medium was confirmed by ELISA assay.

[2] = test system: IgE; experiment: Atopic dermatitis efficacy test using B lymphocytes (RPMI 1788): IgE released after LPS, ELISA; format: cell-based, human; set-up: key: •: have statistical significance, determining as effective, compared with the positive control; conditions: then LPS 0.1 μg/mL 24 hours
Method: as §1
B lymphocytes (RPMI 1788) were treated with 0.1 μg/mL of LPS as a stimulator for 24 hours, and a concentration of IgE released in a cell culture medium was confirmed by ELISA assay.
as §2, §3
B lymphocytes (RPMI 1788) were treated with 0.1 μg/mL of LPS as a stimulator for 24 hours, and then a concentration of IgE released in a cell culture medium was confirmed by ELISA assay. As compared with the positive control (Pos), in all of the oligopeptide-treated groups, IgE was reduced (FIG. 2D).

[3] = test system: IL-4; experiment: Atopic dermatitis efficacy test using T lymphocytes: IL-4 released after IL-2, ELISA; format: cell-based, human; set-up: key to T lymphocyte (human) IL-4: •: have statistical significance, determining as effective, compared with the positive control; conditions: for IL-4 concentration released in cell culture medium: Example 1-5, FIG. 1E, IL-2 50 ng/mL 12 hours; for IL-4 concentration released in cell culture medium / IL-4: T lymphocytes, 1 μg/mL 24 hours; for T lymphocyte (human) IL-4: 1 μg/mL for 24 hours, then IL-2 50 ng/mL 12 hours; for IL-4: Example 2-5, FIG. 2E, compared with positive control (Pos)
Method: as §1
An atopic dermatitis efficacy test using T lymphocytes was performed with six peptide candidate groups (Z3, Z4, Z5, Z12, Z14, and Z15), which were determined to have efficacy from the results of Examples 1-1 to 1-4 described above. T lymphocytes were treated with 50 ng/mL of IL-2 as a stimulator for 12 hours, and a concentration of IL-4 released in a cell culture medium was confirmed by ELISA assay.
as §2, §3
An experiment was performed on T lymphocytes using the target peptides selected through the previous experiment. As compared with the positive control (Pos), in all of the oligopeptide-treated groups (Z20mer-1, Z20mer-2, Z20mer-3, Z15mer-1, Z15mer-2, Z15mer-3, and Z15mer-4), IL-4 was reduced (FIG. 2E).

[4] = test system: Histamine; experiment: Atopic dermatitis efficacy test using mast cells (RBL-2H3): histamine released after PMA and A23187, ELISA; format: cell-based, rat; set-up: key: •: have statistical significance, determining as effective, compared with the positive control; conditions: 1 μg/mL for 24 hours, then PMA 1 μg/mL, A23187 1 μg/mL 12 hours
Method: as §1
Mast cells (RBL-2H3) were treated with 1 μg/mL of PMA and 1 μg/mL of A23187 as stimulators for 12 hours, and a concentration of histamine released in a cell culture medium was confirmed by ELISA assay.
as §2, §3
Mast cells (RBL-2H3) were treated with 1 μg/mL of PMA and 1 μg/mL of A23187 as simulators for 12 hours, and then a concentration of histamine released in a cell culture medium was confirmed by ELISA assay. As compared with the positive control (Pos), in all of the oligopeptide-treated groups, the histamine release was reduced (FIG. 2B).

[5] = test system: CCL17/TARC; experiment: Atopic dermatitis efficacy test using keratinocytes (HaCaT): CCL17/TARC released after TNF-α and IFN-γ, ELISA; format: cell-based, human; set-up: key to HaCaT (human) CCL17/TARC: •: have statistical significance, determining as effective, compared with the positive control; conditions: for CCL17/TARC concentration released in cell culture medium: Example 2-3, FIG. 2C, HaCaT, 1 μg/mL 24 hours, TNF-α 0.4 μg/mL and IFN-γ 0.4 μg/mL 24 hours, compared with positive control (Pos); for HaCaT (human) CCL17/TARC: 1 μg/mL for 24 hours, then TNF-α 0.4 μg/mL, IFN-γ 0.4 μg/mL 24 hours
Method: as §1
Keratinocytes (HaCaT cells) were treated with 0.4 μg/mL of TNF-α and 0.4 μg/mL of IFN-γ as stimulators for 24 hours, and then a concentration of CCL17/TARC released in a cell culture medium was confirmed by ELISA assay.
as §2, §3

[6] = Table 3, 1 μg/mL for 24 hours, vs stimulator only
[7] = Table 5, 1 μg/mL for 24 hours, vs positive control

| Molecule | IL-6 concentration released in cell culture medium [1] | RAW 264.7 (mouse) IL-6 ([1]; Table 3, vs stimulator only) | B lymphocyte (human) IgE [2, 6] | IL-4 concentration released in cell culture medium [3] | T lymphocyte (human) IL-4 ([3]; Table 3, vs stimulator only) | RBL-2H3 (rat) Histamine ([4]; Table 3, vs stimulator only) | CCL17/TARC concentration released in cell culture medium [5] | HaCaT (human) CCL17/TARC ([5]; Table 3, vs stimulator only) | RAW 264.7 (mouse) IL-6 ([1]; Table 5, vs positive control) | B lymphocyte (human) IgE [2, 7] | IL-4 [3] | T lymphocyte (human) IL-4 ([3]; Table 5, vs positive control) | RBL-2H3 (rat) Histamine ([4]; Table 5, vs positive control) | HaCaT (human) CCL17/TARC ([5]; Table 5, vs positive control) |
| --- | --- | --- | --- | --- | --- | --- | --- | --- | --- | --- | --- | --- | --- | --- |
| Z3: ZAG protein-derived peptide, SEQ ID NO. 3: EDWKQDSQLQKAREDIFMETLKDIVEYYND (ZAG protein-derived peptide) | significantly decreased | • | • | significantly decreased | • | • | significantly decreased | • | – | – | – | – | – | – |
| Z4: ZAG protein-derived peptide, SEQ ID NO. 4: SNGSHVLQGRFGCEIENNRSSGAFWKYYYD (ZAG protein-derived peptide) | – | • | • | significantly decreased | • | • | – | • | – | – | – | – | – | – |
| Z5: ZAG protein-derived peptide, SEQ ID NO. 5: GKDYIEFNKEIPAWVPFDPAAQITKQKWEA (ZAG protein-derived peptide) | – | • | • | significantly decreased | • | • | – | • | – | – | – | – | – | – |
| Z6: ZAG protein-derived peptide, SEQ ID NO. 6: EPVYVQRAKAYLEEECPATLRKYLKYSKNI (ZAG protein-derived peptide) | – | • | • | – | – | • | – | • | – | – | – | – | – | – |
| Z7: ZAG protein-derived peptide, SEQ ID NO. 7: LDRQDPPSVVVTSHQAPGEKKKLKCLAYDF (ZAG protein-derived peptide) | – | • | • | – | – | • | – | • | – | – | – | – | – | – |
| Z8: ZAG protein-derived peptide, SEQ ID NO. 8: YPGKIDVHWTRAGEVQEPELRGDVLHNGNG (ZAG protein-derived peptide) | – | • | • | – | – | • | – | • | – | – | – | – | – | – |
| Z14: ZAG protein-derived peptide, SEQ ID NO. 14: IFMETLKDIVEYYNDSNGSHVLQGRFGCEI (ZAG protein-derived peptide) | – | • | • | significantly decreased | • | • | – | • | – | – | – | – | – | – |
| Z15mer-3: ZAG3-derived oligopeptide, SEQ ID NO. 25: KAREDIFMETLKDIV (ZAG protein-derived peptide) | significantly decreased | – | – | – | – | – | significantly decreased | – | • | • | reduced | • | • | • |
| Z15mer-4: ZAG3-derived oligopeptide, SEQ ID NO. 26: IFMETLKDIVEYYND (ZAG protein-derived peptide) | significantly decreased | – | – | – | – | – | significantly decreased | – | • | • | reduced | • | • | • |
| Z0: ZAG protein, entire sequence of 298 amino acids (GenBank: AAH05306.1; SEQ ID NO: 19) (protein, listed as Homo sapiens) MVRMVPVLLSLLLLLGPAVPQENQDGRYSLTYIYTGLSKHVEDVPAFQALGSLNDLQFFRYNSKDRKSQPMGLWRQVEGMEDWKQDSQLQKAREDIFMETLKDIVEYYNDSNGSHVLQGRFGCEIENNRSSGAFWKYYYDGKDYIEFNKEIPAWVPFDPAAQITKQKWEAEPVYVQRAKAYLEEECPATLRKYLKYSKNILDRQDPPSVVVTSHQAPGEKKKLKCLAYDFYPGKIDVHWTRAGEVQEPELRGDVLHNGNGTYQSWVVVAVPPQDTAPYSCHVQHSSLAQPLVVPWEAS | – | • | • | – | • | • | – | • | – | – | – | – | – | – |

Source: US11213567B2, “ZAG-derived peptide and use thereof” (L&C Bio Co., LTD., priority 2017, dated 2022)
